Experimental data reported in patent US8802720B2, “Acylamino-substituted fused cyclopentanecarboxylic acid derivatives and their use as pharmaceuticals” (SANOFI, priority 2008, dated 2014).

Each compound was assayed against human Edg-2 receptor (LPA1 receptor) (Homo sapiens, UniProt Q92633) (assay: Edg-2 receptor inhibition by FLIPR calcium fluorescence measurement (LPA-mediated calcium liberation)). Conditions: CHO cells stably overexpressing human Edg-2 receptor; LPA 18:1 100 nM; fluo-4 fluorescence; triplicate; read-out: Inhibitory concentrations IC50 for inhibition of the Edg-2 receptor.
Chain of human Edg-2 receptor (LPA1 receptor) (Q92633 whole entry): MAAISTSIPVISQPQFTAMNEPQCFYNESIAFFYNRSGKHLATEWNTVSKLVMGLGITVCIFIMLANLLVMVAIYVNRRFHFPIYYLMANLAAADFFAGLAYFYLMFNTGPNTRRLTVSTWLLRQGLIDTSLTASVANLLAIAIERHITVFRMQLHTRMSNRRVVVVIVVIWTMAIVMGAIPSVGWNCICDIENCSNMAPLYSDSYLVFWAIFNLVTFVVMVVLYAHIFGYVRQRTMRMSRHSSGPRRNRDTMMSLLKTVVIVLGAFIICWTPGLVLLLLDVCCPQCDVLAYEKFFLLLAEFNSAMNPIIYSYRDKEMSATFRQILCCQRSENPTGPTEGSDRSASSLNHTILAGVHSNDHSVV
Type: cell-based
Procedure: A) Determination of Edg-2 Receptor Inhibition by Fluorescence Imaging Plate Reader (FLIPR) Measurements
The inhibition of the Edg-2 receptor (LPA1 receptor) by the compounds of the invention was quantified by the inhibitory effect on the LPA-mediated calcium liberation in a cell-based calcium fluorescence assay by use of Chinese hamster ovarian (CHO) cells in which the human Edg-2 receptor was stably overexpressed (FIp-In system, Invitrogen). […] Changes in intracellular calcium were determined by fluorescence measurement with the calcium-sensitive dye fluo-4 (Invitrogen) in a fluorescence imaging plate reader (FLIPR, […]).
CHO cells stably overexpressing the human Edg-2 receptor were seeded (40.000 per well) in black clear-bottomed poly-D-lysine-coated 96 well plates (Becton Dickinson, Biocoat cellware) approximately 18-24 h prior to the experiments. Cells were grown in an incubator at 37° C., 5% carbon dioxide and 95% humidity in cell culture media based on F-12 glutamax media (Gibco, #31765) supplemented with 1% (vol/vol) penicilline/streptomycine (PAN, #P06-07100), 10% (vol/vol) fetal calf serum (FCS, PAA, #A15-151) and hygromycin B (Invitrogen, #10687-010) 300 mg/l (final concentrations).
Prior to the FLIPR experiment, cells were loaded with fluo-4 acetoxymethyl ester (fluo-4 AM, Invitrogen, #F14202) for 60 min in an incubator at 37° C., 5% carbon dioxide and 95% humidity in dye-loading buffer consisting of Hanks' Balanced Salt Solution (HBSS, Invitrogen, #14065049) supplemented with fluo-4 AM at 2 μM (all data given for final concentration), Pluronic® F-127 0.05% (vol/vol) (Invitrogen, #P-3000 MP), HEPES 20 mM (Gibco, #15630), probenecid 2.5 mM (Sigma, #P-8761) and bovine serum albumin 0.05% (BSA, Sigma, #A-6003), adjusted to pH 7.5 with sodium hydroxide. During cell loading, fluo-4 AM is cleaved by intracellular esterase resulting in trapping of the dye fluo-4 within the cells. Loading was terminated by washing of the cells in a cell washer (Tecan Power washer) three times with the buffer specified afore but without fluo-4 AM and BSA. This latter buffer was also used as the buffer in the subsequent cell fluorescence measurements.
The dye-loaded and washed cells were pre-incubated for approximately 5 min with various concentrations of the test compound added as a solution in DMSO (0.3% vol/vol maximum final concentration of DMSO), or with DMSO in the respective concentration only (positive control). Subsequent addition of LPA (18:1, 1-oleoyl-sn-glycerol 3-phosphate; 100 nM final concentration) leads to liberation of intracellular calcium from internal stores resulting in a large transient increase of the fluo-4 fluorescence signal which was monitored over approximately 3 min. The percent inhibition caused by the test compound was determined from the maximum fluorescence response after LPA addition to cells pre-incubated with the compound as compared to the maximum fluorescence response after LPA addition to cells pre-incubated with DMSO only. All fluorescence values were corrected for the baseline fluorescence values obtained with cells which were pre-incubated with DMSO only and were not treated with LPA (baseline control). All measurements were performed in triplicate. From the percent inhibitions the inhibitory concentration IC50 was determined.

Q: How did the IC50 turn out when `COc1ccc(C(=O)NC2(C(=O)O)Cc3ccccc3C2O)cc1OCCc1cccc(C)c1` (single isomer, unassigned) [Example 220, 1-Hydroxy-2-[4-methoxy-3-(2-m-tolyl-ethoxy)-benzoylamino]-indane-2-carboxylic acid] was run?
A: < 0.1 µM

Q: Which IC50 does the source give for `Cc1cccc(CCOc2cc(C(=O)NC3(C(=O)O)Cc4ccccc4C3)ccc2Br)c1` [Example 2, 2-[4-Bromo-3-(2-m-tolyl-ethoxy)-benzoylamino]-indane-2-carboxylic acid] here?
A: < 0.1 µM

Q: `CSc1ccc(C(=O)NC2(C(=O)O)Cc3ccccc3C2)cc1OCCc1cccc(C)c1` [Example 4, 2-[4-Methylsulfanyl-3-(2-m-tolyl-ethoxy)-benzoylamino]-indane-2-carboxylic acid] was tested. Which IC50 did it give?
A: < 0.1 µM

Q: For `Cc1cccc(CCOc2cc(C(=O)NC3(C(=O)O)Cc4ccccc4C3)ccc2[S+](C)[O-])c1` (stereo not shown) [Example 5, 2-[4-Methanesulfinyl-3-(2-m-tolyl-ethoxy)-benzoylamino]-indane-2-carboxylic acid], which IC50 is on record?
A: 1 to 30 µM

Q: For `Cc1cccc(CCOc2cc(C(=O)NC3(C(=O)O)Cc4ccccc4C3)ccc2S(C)(=O)=O)c1` [Example 6, 2-[4-Methanesulfonyl-3-(2-m-tolyl-ethoxy)-benzoylamino]-indane-2-carboxylic acid], which IC50 is on record?
A: 1 to 30 µM

Q: For `CC(=O)c1ccc(C(=O)NC2(C(=O)O)Cc3ccccc3C2)cc1OCCc1cccc(C)c1` [Example 8, 2-[4-Acetyl-3-(2-m-tolyl-ethoxy)-benzoylamino]-indane-2-carboxylic acid], which IC50 is on record?
A: 0.1 to 1 µM

Q: How did the IC50 turn out when `Cc1cccc(CCOc2cc(C(=O)NC3(C(=O)O)Cc4ccccc4C3)ccc2C(C)O)c1` (stereo not shown) [Example 9, 2-[4-(1-Hydroxy-ethyl)-3-(2-m-tolyl-ethoxy)-benzoylamino]-indane-2-carboxylic acid] was run?
A: 0.1 to 1 µM

Q: Which IC50 does the source give for `CCc1ccc(C(=O)NC2(C(=O)O)Cc3ccccc3C2)cc1OCCc1cccc(C)c1` [Example 10, 2-[4-Ethyl-3-(2-m-tolyl-ethoxy)-benzoylamino]-indane-2-carboxylic acid] here?
A: < 0.1 µM

Q: `Cc1cccc(CCOc2cc(C(=O)NC3(C(=O)O)Cc4ccccc4C3)ccc2C(C)F)c1` (stereo not shown) [Example 11, 2-[4-(1-Fluoro-ethyl)-3-(2-m-tolyl-ethoxy)-benzoylamino]-indane-2-carboxylic acid] was tested. Which IC50 did it give?
A: < 0.1 µM

Q: `CCOc1ccc(C(=O)NC2(C(=O)O)Cc3ccccc3C2)cc1OCCc1cccc(C)c1` [Example 12, 2-[4-Ethoxy-3-(2-m-tolyl-ethoxy)-benzoylamino]-indane-2-carboxylic acid] was tested. Which IC50 did it give?
A: < 0.1 µM

Q: For `COc1ccc(C(=O)NC2(C(=O)O)Cc3ccccc3C2)cc1OCCc1cccc(C)c1` [Example 14, 2-[4-Methoxy-3-(2-m-tolyl-ethoxy)-benzoylamino]-indane-2-carboxylic acid], which IC50 is on record?
A: < 0.1 µM

Q: With `COc1ccc(C(=O)NC2(C(=O)O)Cc3ccccc3C2)cc1OCCc1cccc(SC)c1` [Example 16, 2-{4-Methoxy-3-[2-(3-methylsulfanyl-phenyl)-ethoxy]-benzoylamino}-indane-2-carboxylic acid] as the compound, how does the IC50 read?
A: < 0.1 µM

Q: With `COc1ccc(C(=O)NC2(C(=O)O)Cc3ccccc3C2)cc1OCCc1cccc([S+](C)[O-])c1` (stereo not shown) [Example 17, 2-{3-[2-(3-Methanesulfinyl-phenyl)-ethoxy]-4-methoxy-benzoylamino}-indane-2-carboxylic acid] as the compound, how does the IC50 read?
A: 1 to 30 µM

Q: With `COc1ccc(C(=O)NC2(C(=O)O)Cc3ccccc3C2)cc1OCCc1cccc(S(C)(=O)=O)c1` [Example 18, 2-{3-[2-(3-Methanesulfonyl-phenyl)-ethoxy]-4-methoxy-benzoylamino}-indane-2-carboxylic acid] as the compound, how does the IC50 read?
A: 1 to 30 µM

Q: With `COc1ccc(C(=O)NC2(C(=O)O)Cc3ccccc3C2)cc1OCCc1cccc(SC(F)(F)F)c1` [Example 19] as the compound, how does the IC50 read?
A: < 0.1 µM

Q: With `COc1ccc(C(=O)NC2(C(=O)O)Cc3ccccc3C2)cc1OCCc1cc(C)ccc1F` [Example 20] as the compound, how does the IC50 read?
A: < 0.1 µM

Q: With `COc1ccc(C(=O)NC2(C(=O)O)Cc3ccccc3C2)cc1OCCc1cccc(C2CC2)c1` [Example 21, 2-{3-[2-(3-cyclopropyl-phenyl)-ethoxy]-4-methoxy-benzoylamino}-indane-2-carboxylic acid] as the compound, how does the IC50 read?
A: < 0.1 µM

Q: `COc1ccc(C(=O)NC2(C(=O)O)Cc3ccccc3C2)cc1OCCc1cc(C)cc(C)c1` [Example 22] was tested. Which IC50 did it give?
A: 1 to 30 µM

Q: For `CCc1cccc(CCOc2cc(C(=O)NC3(C(=O)O)Cc4ccccc4C3)ccc2OC)c1` [Example 23], which IC50 is on record?
A: < 0.1 µM

Q: Which IC50 does the source give for `COc1ccc(C(=O)NC2(C(=O)O)Cc3ccccc3C2)cc1OCC1(c2cccc(C)c2)CC1` [Example 24] here?
A: < 0.1 µM

Q: `COc1ccc(C(=O)NC2(C(=O)O)Cc3ccccc3C2)cc1OCCc1cccc(C(C)C)c1` [Example 25] was tested. Which IC50 did it give?
A: < 0.1 µM

Q: How did the IC50 turn out when `COc1ccc(C(=O)NC2(C(=O)O)Cc3ccccc3C2)cc1OCCc1ccc(C#N)cc1` [Example 26] was run?
A: 1 to 30 µM

Q: `COCCOCCOc1cc(C(=O)NC2(C(=O)O)Cc3ccccc3C2)ccc1OC` [Example 28] was tested. Which IC50 did it give?
A: 1 to 30 µM

Q: How did the IC50 turn out when `CCOc1ccc(COc2cc(C(=O)NC3(C(=O)O)Cc4ccccc4C3)ccc2OC)cc1` [Example 29] was run?
A: 1 to 30 µM

Q: How did the IC50 turn out when `COc1ccc(C(=O)NC2(C(=O)O)Cc3ccccc3C2)cc1OCCC1CCCCC1` [Example 30] was run?
A: 1 to 30 µM

Q: How did the IC50 turn out when `COc1ccc(C(=O)NC2(C(=O)O)Cc3ccccc3C2)cc1OCCc1c[nH]c2ccccc12` [Example 32] was run?
A: 1 to 30 µM

Q: How did the IC50 turn out when `COCCOc1cc(C(=O)NC2(C(=O)O)Cc3ccccc3C2)ccc1OC` [Example 33] was run?
A: 1 to 30 µM

Q: With `COc1ccc(C(=O)NC2(C(=O)O)Cc3ccccc3C2)cc1OCCCCc1ccccc1` [Example 34] as the compound, how does the IC50 read?
A: 1 to 30 µM

Q: `COc1ccc(C(=O)NC2(C(=O)O)Cc3ccccc3C2)cc1OCC(C)C` [Example 35] was tested. Which IC50 did it give?
A: 1 to 30 µM

Q: `COc1ccc(C(=O)NC2(C(=O)O)Cc3ccccc3C2)cc1OCCC(C)C` [Example 36] was tested. Which IC50 did it give?
A: 1 to 30 µM

Q: How did the IC50 turn out when `COc1ccc(C(=O)NC2(C(=O)O)Cc3ccccc3C2)cc1OCC(C)(C)C` [Example 37] was run?
A: 1 to 30 µM

Q: With `COc1ccc(C(=O)NC2(C(=O)O)Cc3ccccc3C2)cc1OCC1CCOC1` (stereo not shown) [Example 38] as the compound, how does the IC50 read?
A: 1 to 30 µM

Q: How did the IC50 turn out when `COc1ccc(C(=O)NC2(C(=O)O)Cc3ccccc3C2)cc1OCc1ccc(Cl)cc1` [Example 39] was run?
A: 1 to 30 µM

Q: Which IC50 does the source give for `COc1ccc(C(=O)NC2(C(=O)O)Cc3ccccc3C2)cc1OCc1ccc(C(C)(C)C)cc1` [Example 40] here?
A: 1 to 30 µM

Q: With `CCc1ccc(COc2cc(C(=O)NC3(C(=O)O)Cc4ccccc4C3)ccc2OC)cc1` [Example 41] as the compound, how does the IC50 read?
A: 1 to 30 µM

Q: For `COc1ccc(C(=O)NC2(C(=O)O)Cc3ccccc3C2)cc1OCC1CCCC1` [Example 42], which IC50 is on record?
A: 1 to 30 µM

Q: For `COc1ccc(C(=O)NC2(C(=O)O)Cc3ccccc3C2)cc1OCCCC(C)C` [Example 43], which IC50 is on record?
A: 1 to 30 µM

Q: `COc1ccc(C(=O)NC2(C(=O)O)Cc3ccccc3C2)cc1OCCc1cccc2ccccc12` [Example 44] was tested. Which IC50 did it give?
A: 1 to 30 µM

Q: With `COc1ccc(C(=O)NC2(C(=O)O)Cc3ccccc3C2)cc1OC/C=C/c1ccccc1` [Example 45] as the compound, how does the IC50 read?
A: 1 to 30 µM

Q: How did the IC50 turn out when `COc1ccc(C(=O)NC2(C(=O)O)Cc3ccccc3C2)cc1OCCc1ccccc1C(F)(F)F` [Example 47] was run?
A: 1 to 30 µM

Q: With `COc1ccc(C(=O)NC2(C(=O)O)Cc3ccccc3C2)cc1OCC1CCCN(C)C1` (stereo not shown) [Example 48] as the compound, how does the IC50 read?
A: 1 to 30 µM

Q: How did the IC50 turn out when `CCN(CC)CCCOc1cc(C(=O)NC2(C(=O)O)Cc3ccccc3C2)ccc1OC` [Example 49] was run?
A: 1 to 30 µM

Q: For `COc1ccc(C(=O)NC2(C(=O)O)Cc3ccccc3C2)cc1OCC1CC=CCC1` (stereo not shown) [Example 50], which IC50 is on record?
A: 0.1 to 1 µM

Q: `COc1ccc(C(=O)NC2(C(=O)O)Cc3ccccc3C2)cc1OCc1nccc(Cl)c1OC` [Example 52] was tested. Which IC50 did it give?
A: 1 to 30 µM

Q: Which IC50 does the source give for `COc1ccc(C(=O)NC2(C(=O)O)Cc3ccccc3C2)cc1OCCCC1CC(c2ccccc2)=NO1` (stereo not shown) [Example 53] here?
A: 1 to 30 µM

Q: How did the IC50 turn out when `COc1ccc(C(=O)NC2(C(=O)O)Cc3ccccc3C2)cc1OCCc1cc(-c2ccc(Cl)cc2)no1` [Example 54] was run?
A: 1 to 30 µM

Q: For `COc1ccnc(COc2cc(C(=O)NC3(C(=O)O)Cc4ccccc4C3)ccc2OC)c1` [Example 55], which IC50 is on record?
A: 1 to 30 µM

Q: `CCC1(COc2cc(C(=O)NC3(C(=O)O)Cc4ccccc4C3)ccc2OC)COCOC1` [Example 56] was tested. Which IC50 did it give?
A: 1 to 30 µM

Q: For `COc1ccc(C(=O)NC2(C(=O)O)Cc3ccccc3C2)cc1OCC1CCC(C)CC1` (stereo not shown) [Example 57], which IC50 is on record?
A: 1 to 30 µM
